According to paper PMC11864979, “First-in-class ultralong-target-residence-time p38α inhibitors as a mitosis-targeted therapy for colorectal cancer” (Nature Cancer, 2025):
Where two headings read alike, the source gives them in different places.

Tests used:
Experiment in all cases: selectivity profiling in a panel of 340 wild-type kinases (Reaction Biology Europe)
Format in all cases: binding
340 wild-type kinases [1] = target: T1, 340 wild-type kinases (Homo sapiens, UniProt P07332)
T1 construct: purchased Reaction Biology Europe

340 wild-type kinases [2] = target: T2, 340 wild-type kinases (Homo sapiens, UniProt P10721)
T2 construct: purchased Reaction Biology Europe

340 wild-type kinases [3] = target: T3, 340 wild-type kinases (Homo sapiens, UniProt P12931)
T3 construct: purchased Reaction Biology Europe

340 wild-type kinases [4] = target: T4, 340 wild-type kinases (Homo sapiens, UniProt P21802)
T4 construct: purchased Reaction Biology Europe

340 wild-type kinases [5] = target: T5, 340 wild-type kinases (Homo sapiens, UniProt P41240)
T5 construct: purchased Reaction Biology Europe

340 wild-type kinases [6] = target: T6, 340 wild-type kinases (Homo sapiens, UniProt P50613)
T6 construct: purchased Reaction Biology Europe

340 wild-type kinases [7] = target: T7, 340 wild-type kinases (Homo sapiens, UniProt Q00534)
T7 construct: purchased Reaction Biology Europe

340 wild-type kinases [8] = target: T8, 340 wild-type kinases (Homo sapiens, UniProt Q08881)
T8 construct: purchased Reaction Biology Europe
T8 sequence (Q08881 1-620): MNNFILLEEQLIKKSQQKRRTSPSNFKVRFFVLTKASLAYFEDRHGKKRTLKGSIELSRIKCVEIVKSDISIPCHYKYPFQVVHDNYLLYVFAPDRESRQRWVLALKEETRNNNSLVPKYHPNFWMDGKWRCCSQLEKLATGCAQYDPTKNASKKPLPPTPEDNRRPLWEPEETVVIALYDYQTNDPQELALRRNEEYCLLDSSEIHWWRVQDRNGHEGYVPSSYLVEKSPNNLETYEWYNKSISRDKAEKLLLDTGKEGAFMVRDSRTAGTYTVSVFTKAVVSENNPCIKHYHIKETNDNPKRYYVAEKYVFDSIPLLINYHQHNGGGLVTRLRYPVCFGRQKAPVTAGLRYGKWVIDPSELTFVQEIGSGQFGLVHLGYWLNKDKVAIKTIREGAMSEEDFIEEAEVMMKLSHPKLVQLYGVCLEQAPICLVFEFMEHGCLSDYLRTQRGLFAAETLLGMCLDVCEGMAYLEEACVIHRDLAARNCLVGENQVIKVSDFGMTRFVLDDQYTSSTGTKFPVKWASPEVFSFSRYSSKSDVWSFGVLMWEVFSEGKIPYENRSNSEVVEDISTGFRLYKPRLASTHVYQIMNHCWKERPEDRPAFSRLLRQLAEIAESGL

340 wild-type kinases [9] = target: T9, 340 wild-type kinases (Homo sapiens, UniProt Q86UE8)
T9 construct: purchased Reaction Biology Europe

340 wild-type kinases [10] = target: T10, 340 wild-type kinases (Homo sapiens, UniProt Q86Y07)
T10 construct: purchased Reaction Biology Europe

340 wild-type kinases [11] = target: T11, 340 wild-type kinases (Homo sapiens, UniProt Q96GD4)
T11 construct: purchased Reaction Biology Europe

340 wild-type kinases [12] = target: T12, 340 wild-type kinases (Homo sapiens, UniProt Q9BWU1)
T12 construct: purchased Reaction Biology Europe

340 wild-type kinases [13] = target: T13, 340 wild-type kinases (Homo sapiens, UniProt Q9Y4K4)
T13 construct: purchased Reaction Biology Europe
T13 sequence (Q9Y4K4 whole entry): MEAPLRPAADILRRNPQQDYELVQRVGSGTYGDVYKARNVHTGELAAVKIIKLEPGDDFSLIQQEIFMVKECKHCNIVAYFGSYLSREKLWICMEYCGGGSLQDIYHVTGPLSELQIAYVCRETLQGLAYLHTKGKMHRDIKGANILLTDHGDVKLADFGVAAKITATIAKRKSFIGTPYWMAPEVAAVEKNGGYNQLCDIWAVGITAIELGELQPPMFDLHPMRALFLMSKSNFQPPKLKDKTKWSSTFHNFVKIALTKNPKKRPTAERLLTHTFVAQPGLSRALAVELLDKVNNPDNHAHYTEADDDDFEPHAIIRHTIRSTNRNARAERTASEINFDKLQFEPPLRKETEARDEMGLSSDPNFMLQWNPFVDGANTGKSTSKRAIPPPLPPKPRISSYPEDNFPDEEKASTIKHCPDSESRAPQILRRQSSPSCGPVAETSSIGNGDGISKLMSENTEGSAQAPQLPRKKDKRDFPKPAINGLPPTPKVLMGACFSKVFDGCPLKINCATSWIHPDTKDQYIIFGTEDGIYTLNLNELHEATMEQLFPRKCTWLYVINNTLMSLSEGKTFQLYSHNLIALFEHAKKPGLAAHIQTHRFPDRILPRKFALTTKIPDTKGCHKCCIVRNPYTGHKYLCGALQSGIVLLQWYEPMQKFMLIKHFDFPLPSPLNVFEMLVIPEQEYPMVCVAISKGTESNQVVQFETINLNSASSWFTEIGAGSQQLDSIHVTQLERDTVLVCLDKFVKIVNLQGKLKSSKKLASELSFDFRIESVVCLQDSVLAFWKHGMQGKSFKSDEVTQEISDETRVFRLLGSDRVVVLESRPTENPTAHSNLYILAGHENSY

T7 sequence (Q00534 whole entry): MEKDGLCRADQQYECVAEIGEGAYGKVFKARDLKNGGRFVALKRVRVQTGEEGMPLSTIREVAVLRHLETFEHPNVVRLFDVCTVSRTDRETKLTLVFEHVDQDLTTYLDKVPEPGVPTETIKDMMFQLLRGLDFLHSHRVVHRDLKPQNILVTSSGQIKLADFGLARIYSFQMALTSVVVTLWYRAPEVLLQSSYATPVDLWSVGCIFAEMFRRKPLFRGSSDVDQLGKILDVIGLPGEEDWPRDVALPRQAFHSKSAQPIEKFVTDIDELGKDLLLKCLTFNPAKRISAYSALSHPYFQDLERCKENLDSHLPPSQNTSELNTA
T2 sequence (P10721 26-976): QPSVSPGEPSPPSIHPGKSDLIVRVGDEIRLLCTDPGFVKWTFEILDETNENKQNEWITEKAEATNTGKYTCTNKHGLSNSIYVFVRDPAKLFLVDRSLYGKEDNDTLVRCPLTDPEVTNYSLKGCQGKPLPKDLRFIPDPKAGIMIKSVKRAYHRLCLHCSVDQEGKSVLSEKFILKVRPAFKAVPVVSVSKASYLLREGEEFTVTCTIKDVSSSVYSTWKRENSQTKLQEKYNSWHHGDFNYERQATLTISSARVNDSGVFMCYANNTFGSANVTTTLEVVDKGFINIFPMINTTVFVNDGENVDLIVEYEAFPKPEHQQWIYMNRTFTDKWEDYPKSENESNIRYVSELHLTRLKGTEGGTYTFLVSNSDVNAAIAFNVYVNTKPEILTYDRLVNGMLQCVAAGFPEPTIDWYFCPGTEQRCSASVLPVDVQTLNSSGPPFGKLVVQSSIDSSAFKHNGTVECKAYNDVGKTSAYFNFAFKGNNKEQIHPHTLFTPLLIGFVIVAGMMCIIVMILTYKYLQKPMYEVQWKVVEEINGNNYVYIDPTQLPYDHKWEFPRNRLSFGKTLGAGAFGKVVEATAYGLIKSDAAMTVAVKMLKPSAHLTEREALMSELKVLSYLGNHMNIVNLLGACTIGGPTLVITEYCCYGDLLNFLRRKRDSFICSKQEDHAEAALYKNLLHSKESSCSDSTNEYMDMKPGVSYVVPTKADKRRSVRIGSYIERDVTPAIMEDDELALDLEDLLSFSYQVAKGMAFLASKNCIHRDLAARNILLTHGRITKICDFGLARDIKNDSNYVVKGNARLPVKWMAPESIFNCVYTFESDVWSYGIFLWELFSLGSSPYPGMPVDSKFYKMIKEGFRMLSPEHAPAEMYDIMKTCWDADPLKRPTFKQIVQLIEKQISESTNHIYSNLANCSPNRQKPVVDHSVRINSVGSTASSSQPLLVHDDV
T3 sequence (P12931 whole entry): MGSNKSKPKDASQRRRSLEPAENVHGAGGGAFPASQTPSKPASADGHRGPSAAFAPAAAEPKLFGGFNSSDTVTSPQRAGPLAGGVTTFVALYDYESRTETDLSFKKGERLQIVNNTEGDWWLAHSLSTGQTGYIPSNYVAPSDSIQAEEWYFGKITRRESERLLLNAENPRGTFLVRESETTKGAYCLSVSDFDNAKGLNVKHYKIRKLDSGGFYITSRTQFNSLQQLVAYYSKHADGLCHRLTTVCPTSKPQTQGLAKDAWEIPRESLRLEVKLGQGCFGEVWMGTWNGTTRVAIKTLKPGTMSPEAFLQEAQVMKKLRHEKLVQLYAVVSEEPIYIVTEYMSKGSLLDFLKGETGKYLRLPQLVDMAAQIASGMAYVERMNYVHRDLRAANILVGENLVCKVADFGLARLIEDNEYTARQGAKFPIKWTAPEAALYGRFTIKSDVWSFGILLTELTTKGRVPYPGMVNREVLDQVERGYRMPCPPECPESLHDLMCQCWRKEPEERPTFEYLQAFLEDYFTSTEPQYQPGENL
T9 sequence (Q86UE8 whole entry): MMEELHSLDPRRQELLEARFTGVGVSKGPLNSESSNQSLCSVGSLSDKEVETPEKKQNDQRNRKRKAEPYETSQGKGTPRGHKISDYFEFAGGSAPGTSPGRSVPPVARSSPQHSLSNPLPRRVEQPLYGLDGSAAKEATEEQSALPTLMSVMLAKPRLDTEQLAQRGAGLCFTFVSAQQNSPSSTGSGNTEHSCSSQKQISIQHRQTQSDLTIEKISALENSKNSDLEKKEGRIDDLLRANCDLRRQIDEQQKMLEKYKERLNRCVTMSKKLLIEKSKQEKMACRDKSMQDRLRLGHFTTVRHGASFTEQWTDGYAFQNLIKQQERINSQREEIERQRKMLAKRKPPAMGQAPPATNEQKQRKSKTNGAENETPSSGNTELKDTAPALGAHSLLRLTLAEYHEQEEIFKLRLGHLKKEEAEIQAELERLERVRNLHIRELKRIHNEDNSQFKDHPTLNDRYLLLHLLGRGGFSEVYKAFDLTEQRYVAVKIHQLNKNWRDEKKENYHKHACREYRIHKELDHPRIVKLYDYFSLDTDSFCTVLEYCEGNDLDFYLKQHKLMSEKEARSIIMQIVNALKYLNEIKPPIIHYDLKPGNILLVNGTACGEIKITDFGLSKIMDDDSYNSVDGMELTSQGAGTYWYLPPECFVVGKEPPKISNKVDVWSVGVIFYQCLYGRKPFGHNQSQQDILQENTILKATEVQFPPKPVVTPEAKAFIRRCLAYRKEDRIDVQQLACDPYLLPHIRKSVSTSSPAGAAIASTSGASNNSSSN
T4 sequence (P21802 22-821): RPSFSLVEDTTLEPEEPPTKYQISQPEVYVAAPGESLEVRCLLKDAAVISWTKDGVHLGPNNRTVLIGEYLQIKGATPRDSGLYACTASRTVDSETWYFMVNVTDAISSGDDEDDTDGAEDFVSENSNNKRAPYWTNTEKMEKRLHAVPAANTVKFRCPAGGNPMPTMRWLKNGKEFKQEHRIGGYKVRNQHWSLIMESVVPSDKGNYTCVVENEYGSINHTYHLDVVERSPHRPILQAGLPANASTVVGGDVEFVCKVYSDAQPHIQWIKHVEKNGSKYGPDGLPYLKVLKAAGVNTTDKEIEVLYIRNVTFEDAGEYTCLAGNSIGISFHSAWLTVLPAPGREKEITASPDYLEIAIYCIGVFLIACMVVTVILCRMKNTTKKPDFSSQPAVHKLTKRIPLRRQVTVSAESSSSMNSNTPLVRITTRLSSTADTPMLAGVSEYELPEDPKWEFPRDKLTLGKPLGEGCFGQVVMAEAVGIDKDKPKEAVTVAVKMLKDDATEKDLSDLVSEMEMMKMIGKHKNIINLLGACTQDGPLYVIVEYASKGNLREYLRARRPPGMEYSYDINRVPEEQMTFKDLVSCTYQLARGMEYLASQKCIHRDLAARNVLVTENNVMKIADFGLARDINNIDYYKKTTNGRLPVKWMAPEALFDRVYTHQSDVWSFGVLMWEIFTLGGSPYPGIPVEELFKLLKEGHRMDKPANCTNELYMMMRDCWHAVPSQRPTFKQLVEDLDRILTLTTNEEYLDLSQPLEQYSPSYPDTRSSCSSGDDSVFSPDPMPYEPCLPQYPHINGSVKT
T12 sequence (Q9BWU1 whole entry): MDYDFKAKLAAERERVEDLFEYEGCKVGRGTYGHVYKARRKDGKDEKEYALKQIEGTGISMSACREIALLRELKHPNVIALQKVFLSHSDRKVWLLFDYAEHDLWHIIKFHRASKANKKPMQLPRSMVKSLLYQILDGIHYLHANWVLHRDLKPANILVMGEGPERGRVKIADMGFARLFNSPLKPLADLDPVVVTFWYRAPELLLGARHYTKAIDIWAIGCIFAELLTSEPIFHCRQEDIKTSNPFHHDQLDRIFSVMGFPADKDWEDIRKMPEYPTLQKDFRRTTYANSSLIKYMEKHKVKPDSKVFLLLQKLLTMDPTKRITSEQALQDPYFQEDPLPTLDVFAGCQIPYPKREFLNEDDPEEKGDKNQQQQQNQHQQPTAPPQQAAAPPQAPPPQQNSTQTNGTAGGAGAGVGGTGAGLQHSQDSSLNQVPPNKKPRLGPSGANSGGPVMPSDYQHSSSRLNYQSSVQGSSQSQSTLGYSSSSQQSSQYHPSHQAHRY

SMILES: CNC(=O)c1ccc2c(c1)C(=O)c1ccc(Nc3ccc(F)c(NC(=O)C4CC4)c3)cc1CC2 [Compound 2015]
- remaining activity at 0.2 µM (340 wild-type kinases [1]; 0.2 µM 2015, read-out: FES residual activity): 105%
- remaining activity at 1 µM (340 wild-type kinases [1]; 1 µM 2015, read-out: FES residual activity): 92.1%
- remaining activity at 0.2 µM (340 wild-type kinases [1]; FES, 0.2 µM, read-out: residual activity): 105%
- remaining activity at 1 µM (340 wild-type kinases [1]; FES, 1 µM, read-out: residual activity): 92.1%
- remaining activity at 0.2 µM (340 wild-type kinases [2]; 0.2 µM 2015, read-out: KIT residual activity): 114%
- remaining activity at 1 µM (340 wild-type kinases [2]; 1 µM 2015, read-out: KIT residual activity): 109%
- remaining activity at 0.2 µM (340 wild-type kinases [2]; KIT, 0.2 µM, read-out: residual activity): 114%
- remaining activity at 1 µM (340 wild-type kinases [2]; KIT, 1 µM, read-out: residual activity): 109%
- remaining activity at 0.2 µM (340 wild-type kinases [3]; 0.2 µM 2015, read-out: SRC residual activity): 105%
- remaining activity at 1 µM (340 wild-type kinases [3]; 1 µM 2015, read-out: SRC residual activity): 95.5%
- remaining activity at 0.2 µM (340 wild-type kinases [3]; SRC, 0.2 µM, read-out: residual activity): 105%
- remaining activity at 1 µM (340 wild-type kinases [3]; SRC, 1 µM, read-out: residual activity): 95.5%
- remaining activity at 0.2 µM (340 wild-type kinases [4]; 0.2 µM 2015, read-out: FGFR2 residual activity): 94.1%
- remaining activity at 1 µM (340 wild-type kinases [4]; 1 µM 2015, read-out: FGFR2 residual activity): 96%
- remaining activity at 0.2 µM (340 wild-type kinases [4]; FGFR2, 0.2 µM, read-out: residual activity): 94.1%
- remaining activity at 1 µM (340 wild-type kinases [4]; FGFR2, 1 µM, read-out: residual activity): 96%
- remaining activity at 0.2 µM (340 wild-type kinases [5]; 0.2 µM 2015, read-out: CSK residual activity): 114%
- remaining activity at 1 µM (340 wild-type kinases [5]; 1 µM 2015, read-out: CSK residual activity): 93.1%
- remaining activity at 0.2 µM (340 wild-type kinases [5]; CSK, 0.2 µM, read-out: residual activity): 114%
- remaining activity at 1 µM (340 wild-type kinases [5]; CSK, 1 µM, read-out: residual activity): 93.1%
- remaining activity at 0.2 µM (340 wild-type kinases [6]; 0.2 µM 2015, read-out: CDK7/CycH/MAT1 residual activity): 94%
- remaining activity at 1 µM (340 wild-type kinases [6]; 1 µM 2015, read-out: CDK7/CycH/MAT1 residual activity): 91.1%
- remaining activity at 0.2 µM (340 wild-type kinases [6]; CDK7/CycH/MAT1, 0.2 µM, read-out: residual activity): 94%
- remaining activity at 1 µM (340 wild-type kinases [6]; CDK7/CycH/MAT1, 1 µM, read-out: residual activity): 91.2%
- remaining activity at 0.2 µM (340 wild-type kinases [7]; 0.2 µM 2015, read-out: CDK6/CycD1 residual activity): 97.6%
- remaining activity at 0.2 µM (340 wild-type kinases [7]; 0.2 µM 2015, read-out: CDK6/CycD2 residual activity): 88.8%
- remaining activity at 0.2 µM (340 wild-type kinases [7]; 0.2 µM 2015, read-out: CDK6/CycD3 residual activity): 93.3%
- remaining activity at 1 µM (340 wild-type kinases [7]; 1 µM 2015, read-out: CDK6/CycD1 residual activity): 93.4%
- remaining activity at 1 µM (340 wild-type kinases [7]; 1 µM 2015, read-out: CDK6/CycD2 residual activity): 91.1%
- remaining activity at 1 µM (340 wild-type kinases [7]; 1 µM 2015, read-out: CDK6/CycD3 residual activity): 86.4%
- remaining activity at 0.2 µM (340 wild-type kinases [7]; CDK6/CycD1, 0.2 µM, read-out: residual activity): 97.6%
- remaining activity at 1 µM (340 wild-type kinases [7]; CDK6/CycD1, 1 µM, read-out: residual activity): 93.4%
- remaining activity at 0.2 µM (340 wild-type kinases [7]; CDK6/CycD2, 0.2 µM, read-out: residual activity): 88.8%
- remaining activity at 1 µM (340 wild-type kinases [7]; CDK6/CycD2, 1 µM, read-out: residual activity): 91.1%
- remaining activity at 0.2 µM (340 wild-type kinases [7]; CDK6/CycD3, 0.2 µM, read-out: residual activity): 93.3%
- remaining activity at 1 µM (340 wild-type kinases [7]; CDK6/CycD3, 1 µM, read-out: residual activity): 86.4%
- remaining activity at 0.2 µM (340 wild-type kinases [8]; 0.2 µM 2015, read-out: ITK residual activity): 89.4%
- remaining activity at 1 µM (340 wild-type kinases [8]; 1 µM 2015, read-out: ITK residual activity): 87%
- remaining activity at 0.2 µM (340 wild-type kinases [8]; ITK, 0.2 µM, read-out: residual activity): 89.4%
- remaining activity at 1 µM (340 wild-type kinases [8]; ITK, 1 µM, read-out: residual activity): 87%
- remaining activity at 0.2 µM (340 wild-type kinases [9]; 0.2 µM 2015, read-out: TLK2 residual activity): 147%
- remaining activity at 1 µM (340 wild-type kinases [9]; 1 µM 2015, read-out: TLK2 residual activity): 124%
- remaining activity at 0.2 µM (340 wild-type kinases [9]; TLK2, 0.2 µM, read-out: residual activity): 147%
- remaining activity at 1 µM (340 wild-type kinases [9]; TLK2, 1 µM, read-out: residual activity): 124%
- remaining activity at 0.2 µM (340 wild-type kinases [10]; 0.2 µM 2015, read-out: VRK2 residual activity): 115%
- remaining activity at 1 µM (340 wild-type kinases [10]; 1 µM 2015, read-out: VRK2 residual activity): 118%
- remaining activity at 0.2 µM (340 wild-type kinases [10]; VRK2, 0.2 µM, read-out: residual activity): 115%
- remaining activity at 1 µM (340 wild-type kinases [10]; VRK2, 1 µM, read-out: residual activity): 118%
- remaining activity at 0.2 µM (340 wild-type kinases [11]; 0.2 µM 2015, read-out: AuroraB residual activity): 120%
- remaining activity at 1 µM (340 wild-type kinases [11]; 1 µM 2015, read-out: AuroraB residual activity): 112%
- remaining activity at 0.2 µM (340 wild-type kinases [11]; AuroraB, 0.2 µM, read-out: residual activity): 120%
- remaining activity at 1 µM (340 wild-type kinases [11]; AuroraB, 1 µM, read-out: residual activity): 112%
- remaining activity at 0.2 µM (340 wild-type kinases [12]; 0.2 µM 2015, read-out: CDK19/CycC residual activity): 99.8%
- remaining activity at 1 µM (340 wild-type kinases [12]; 1 µM 2015, read-out: CDK19/CycC residual activity): 96.4%
- remaining activity at 0.2 µM (340 wild-type kinases [12]; CDK19/CycC, 0.2 µM, read-out: residual activity): 99.8%
- remaining activity at 1 µM (340 wild-type kinases [12]; CDK19/CycC, 1 µM, read-out: residual activity): 96.4%
- remaining activity at 0.2 µM (340 wild-type kinases [13]; 0.2 µM 2015, read-out: MAP4K5 residual activity): 101%
- remaining activity at 1 µM (340 wild-type kinases [13]; 1 µM 2015, read-out: MAP4K5 residual activity): 91.4%
- remaining activity at 0.2 µM (340 wild-type kinases [13]; MAP4K5, 0.2 µM, read-out: residual activity): 101%
- remaining activity at 1 µM (340 wild-type kinases [13]; MAP4K5, 1 µM, read-out: residual activity): 91.4%
